# Experimental data published in the supplement of paper PMC10883282.
# ± gives the standard deviation of the averaged measurements.
# How the values were obtained:
# Experiment in all cases: relative viability vs DMSO control (72 h) (fraction); higher = more viable cells
# A204 = tested on: A204
# Outline: (§1)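 Densities for seeding sarcoma cell lines into 384-well plates were set to give 80–90% confluence. After 24 h, 2.5 µl of serially diluted compound from source plates of 10 mM to 0.0002 mM went in, and plates stayed 72 h at 37 °C in 5% CO2 with 0.1% DMSO vehicle and a 5 µM positive control. Percent growth from ATPLite readings, averaged over up to triplicate wells, served as relative viability, rescaled so 1 means full and 0 means none.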
# G401 = tested on: G401
# Outline: as §1
# HS729 = tested on: HS729
# Outline: as §1
# KHOS-240S = tested on: KHOS-240S
# Outline: as §1
# MES-SA = tested on: MES-SA
# Outline: as §1
# RD = tested on: RD
# Outline: as §1
# SK-ES-1 = tested on: SK-ES-1
# Outline: as §1
# SK-LMS-1 = tested on: SK-LMS-1
# Outline: as §1
# SW1353 = tested on: SW1353
# Outline: as §1
# SW872 = tested on: SW872
# Outline: as §1
# SW982 = tested on: SW982
# Outline: as §1
# VA-ES-BJ = tested on: VA-ES-BJ
# Outline: as §1
smiles,measurement,setting,value
C=CC(=O)N1CCC(CNc2ncnc(N)c2-c2ccc(Oc3ccccc3)cc2)CC1 [Evobrutinib],relative viability,A204; 0.00017 µM,1.1 ± 0.057
same,relative viability,A204; 0.00051 µM,1.16 ± 0.065
same,relative viability,A204; 0.00152 µM,1.16 ± 0.091
same,relative viability,A204; 0.00457 µM,1.11 ± 0.064
same,relative viability,A204; 0.01372 µM,1.02 ± 0.083
same,relative viability,A204; 0.04115 µM,1.05 ± 0.031
same,relative viability,A204; 0.1235 µM,1.07 ± 0.099
same,relative viability,A204; 0.3704 µM,1.04 ± 0.07
same,relative viability,A204; 1.111 µM,1.07 ± 0.058
same,relative viability,A204; 3.333 µM,1.02 ± 0.022
same,relative viability,A204; 10 µM,0.871 ± 0.037
same,relative viability,G401; 0.00017 µM,1.05 ± 0.04
same,relative viability,G401; 0.00051 µM,1.01 ± 0.032
same,relative viability,G401; 0.00152 µM,1.01 ± 0.044
same,relative viability,G401; 0.00457 µM,1.02 ± 0.03
same,relative viability,G401; 0.01372 µM,1.03 ± 0.02
same,relative viability,G401; 0.04115 µM,1.03 ± 0.041
same,relative viability,G401; 0.1235 µM,1 ± 0.037
same,relative viability,G401; 0.3704 µM,1.02 ± 0.048
same,relative viability,G401; 1.111 µM,0.982 ± 0.088
same,relative viability,G401; 3.333 µM,1 ± 0.055
same,relative viability,G401; 10 µM,0.894 ± 0.022
same,relative viability,HS729; 0.00017 µM,1.08 ± 0.049
same,relative viability,HS729; 0.00051 µM,1.09 ± 0.077
same,relative viability,HS729; 0.00152 µM,1.04 ± 0.041
same,relative viability,HS729; 0.00457 µM,1.07 ± 0.027
same,relative viability,HS729; 0.01372 µM,1.03 ± 0.05
same,relative viability,HS729; 0.04115 µM,0.991 ± 0.09
same,relative viability,HS729; 0.1235 µM,1.01 ± 0.061
same,relative viability,HS729; 0.3704 µM,1.01 ± 0.039
same,relative viability,HS729; 1.111 µM,0.978 ± 0.078
same,relative viability,HS729; 3.333 µM,0.938 ± 0.091
same,relative viability,HS729; 10 µM,0.862 ± 0.07
same,relative viability,KHOS-240S; 0.00017 µM,1.09 ± 0.075
same,relative viability,KHOS-240S; 0.00051 µM,1.06 ± 0.022
same,relative viability,KHOS-240S; 0.00152 µM,1.08 ± 0.049
same,relative viability,KHOS-240S; 0.00457 µM,1.12 ± 0.076
same,relative viability,KHOS-240S; 0.01372 µM,1.1 ± 0.034
same,relative viability,KHOS-240S; 0.04115 µM,1.09 ± 0.012
same,relative viability,KHOS-240S; 0.1235 µM,1.08 ± 0.033
same,relative viability,KHOS-240S; 0.3704 µM,1.07 ± 0.011
same,relative viability,KHOS-240S; 1.111 µM,1.07 ± 0.017
same,relative viability,KHOS-240S; 3.333 µM,1.04 ± 0.017
same,relative viability,KHOS-240S; 10 µM,1.03 ± 0.032
same,relative viability,MES-SA; 0.00017 µM,1 ± 0.05
same,relative viability,MES-SA; 0.00051 µM,0.9618 ± 0.0083
same,relative viability,MES-SA; 0.00152 µM,0.963 ± 0.027
same,relative viability,MES-SA; 0.00457 µM,0.9579 ± 0.0076
same,relative viability,MES-SA; 0.01372 µM,0.964 ± 0.028
same,relative viability,MES-SA; 0.04115 µM,0.956 ± 0.0076
same,relative viability,MES-SA; 0.1235 µM,0.968 ± 0.044
same,relative viability,MES-SA; 0.3704 µM,0.933 ± 0.019
same,relative viability,MES-SA; 1.111 µM,0.928 ± 0.014
same,relative viability,MES-SA; 3.333 µM,0.892 ± 0.055
same,relative viability,MES-SA; 10 µM,0.792 ± 0.035
same,relative viability,RD; 0.00017 µM,1.06 ± 0.066
same,relative viability,RD; 0.00051 µM,1.09 ± 0.062
same,relative viability,RD; 0.00152 µM,1.09 ± 0.051
same,relative viability,RD; 0.00457 µM,1.08 ± 0.05
same,relative viability,RD; 0.01372 µM,1.11 ± 0.045
same,relative viability,RD; 0.04115 µM,1.11 ± 0.065
same,relative viability,RD; 0.1235 µM,1.12 ± 0.03
same,relative viability,RD; 0.3704 µM,1.09 ± 0.088
same,relative viability,RD; 1.111 µM,1.08 ± 0.046
same,relative viability,RD; 3.333 µM,1.07 ± 0.074
same,relative viability,RD; 10 µM,1.11 ± 0.04
same,relative viability,SK-ES-1; 0.00017 µM,1.12 ± 0.014
same,relative viability,SK-ES-1; 0.00051 µM,1.14 ± 0.029
same,relative viability,SK-ES-1; 0.00152 µM,1.1 ± 0.037
same,relative viability,SK-ES-1; 0.00457 µM,1.04 ± 0.089
same,relative viability,SK-ES-1; 0.01372 µM,1.04 ± 0.031
same,relative viability,SK-ES-1; 0.04115 µM,1.09 ± 0.048
same,relative viability,SK-ES-1; 0.1235 µM,1.05 ± 0.042
same,relative viability,SK-ES-1; 0.3704 µM,1.06 ± 0.034
same,relative viability,SK-ES-1; 1.111 µM,1.03 ± 0.085
same,relative viability,SK-ES-1; 3.333 µM,1.01 ± 0.044
same,relative viability,SK-ES-1; 10 µM,1.02 ± 0.049
same,relative viability,SK-LMS-1; 0.00017 µM,1.08 ± 0.013
same,relative viability,SK-LMS-1; 0.00051 µM,1.1 ± 0.027
same,relative viability,SK-LMS-1; 0.00152 µM,1.08 ± 0.011
same,relative viability,SK-LMS-1; 0.00457 µM,1.08 ± 0.017
same,relative viability,SK-LMS-1; 0.01372 µM,1.04 ± 0.024
same,relative viability,SK-LMS-1; 0.04115 µM,1.11 ± 0.029
same,relative viability,SK-LMS-1; 0.1235 µM,1.11 ± 0.049
same,relative viability,SK-LMS-1; 0.3704 µM,1.05 ± 0.029
same,relative viability,SK-LMS-1; 1.111 µM,1.08 ± 0.07
same,relative viability,SK-LMS-1; 3.333 µM,0.997 ± 0.065
same,relative viability,SK-LMS-1; 10 µM,0.981 ± 0.013
same,relative viability,SW1353; 0.00017 µM,1.07 ± 0.042
same,relative viability,SW1353; 0.00051 µM,1.07 ± 0.019
same,relative viability,SW1353; 0.00152 µM,1.09 ± 0.025
same,relative viability,SW1353; 0.00457 µM,1.06 ± 0.029
same,relative viability,SW1353; 0.01372 µM,1.02 ± 0.049
same,relative viability,SW1353; 0.04115 µM,1.007 ± 0.0014
same,relative viability,SW1353; 0.1235 µM,1.048 ± 0.0084
same,relative viability,SW1353; 0.3704 µM,1.02 ± 0.043
same,relative viability,SW1353; 1.111 µM,0.974 ± 0.067
same,relative viability,SW1353; 3.333 µM,0.949 ± 0.016
same,relative viability,SW1353; 10 µM,0.853 ± 0.068
same,relative viability,SW872; 0.00017 µM,1.05 ± 0.011
same,relative viability,SW872; 0.00051 µM,1.056 ± 0.0072
same,relative viability,SW872; 0.00152 µM,1.04 ± 0.02
same,relative viability,SW872; 0.00457 µM,1.04 ± 0.034
same,relative viability,SW872; 0.01372 µM,1.03 ± 0.026
same,relative viability,SW872; 0.04115 µM,1.03 ± 0.031
same,relative viability,SW872; 0.1235 µM,1.07 ± 0.023
same,relative viability,SW872; 0.3704 µM,1.04 ± 0.035
same,relative viability,SW872; 1.111 µM,1.02 ± 0.013
same,relative viability,SW872; 3.333 µM,1.03 ± 0.021
same,relative viability,SW872; 10 µM,1.01 ± 0.02
same,relative viability,SW982; 0.00017 µM,1.04 ± 0.013
same,relative viability,SW982; 0.00051 µM,1.09 ± 0.028
same,relative viability,SW982; 0.00152 µM,1.11 ± 0.052
same,relative viability,SW982; 0.00457 µM,1.07 ± 0.015
same,relative viability,SW982; 0.01372 µM,1.08 ± 0.043
same,relative viability,SW982; 0.04115 µM,1.068 ± 0.0072
same,relative viability,SW982; 0.1235 µM,1.086 ± 0.0053
same,relative viability,SW982; 0.3704 µM,1.07 ± 0.029
same,relative viability,SW982; 1.111 µM,1.06 ± 0.02
same,relative viability,SW982; 3.333 µM,1.07 ± 0.015
same,relative viability,SW982; 10 µM,1.12 ± 0.02
same,relative viability,VA-ES-BJ; 0.00017 µM,1.1 ± 0.028
same,relative viability,VA-ES-BJ; 0.00051 µM,1.08 ± 0.027
same,relative viability,VA-ES-BJ; 0.00152 µM,1.07 ± 0.012
same,relative viability,VA-ES-BJ; 0.00457 µM,1.08 ± 0.043
same,relative viability,VA-ES-BJ; 0.01372 µM,1.09 ± 0.048
same,relative viability,VA-ES-BJ; 0.04115 µM,1.043 ± 0.0079
same,relative viability,VA-ES-BJ; 0.1235 µM,1.06 ± 0.017
same,relative viability,VA-ES-BJ; 0.3704 µM,1.06 ± 0.046
same,relative viability,VA-ES-BJ; 1.111 µM,1.06 ± 0.042
same,relative viability,VA-ES-BJ; 3.333 µM,1.1 ± 0.038
same,relative viability,VA-ES-BJ; 10 µM,1.1 ± 0.032
